Laboratory results from patent US12350273B2, “Treatment of SMA” (Hoffmann-La Roche Inc., priority 2017, dated 2025).
Read-outs that look alike come from different tables or passages of the source.

Columns and labels:
[1] = Study BP39055 Part 1: pharmacokinetics (AUC0-24h,ss) in SMA patients; type: in vivo, human; details: for AUC(0-t): human, in vivo, read-out: estimated AUC0-24h,ss, median
Excerpt: Study BP39055 is a two-part operationally seamless, multi-center, randomized, placebo-controlled, double-blind study to investigate the safety, tolerability, pharmacokinetics (PK), pharmacodynamics (PD) and efficacy of RO7034067 in Type 2 and 3 spinal muscular atrophy (SMA) patients. The study consists of an exploratory dose-finding part (Part 1) and a confirmatory part (Part 2).
The primary objective of Part 1 is to evaluate the safety, tolerability, PK and PD of RO7034067 in patients with Type 2 and Type 3 (ambulant or non-ambulant) SMA, and to select the dose for Part 2 of the study.
Part 1 was a double-blinded, placebo-controlled, randomized (2:1 RO7034067:placebo), exploratory dose-finding study in Type 2 and Type 3 (ambulant and non-ambulant) SMA patients. This will be followed by an open-label extension (OLE) at the same dose as selected for Part 2 of the study.
Part 1 of the study enrolled patients in two age groups: • Group A: adolescent and adult patients aged 12 25 years • Group B: children aged 2 11 years RO7034067 dose levels were investigated in a staggered, dose escalation manner in both age groups.
The dose recommended by the IMC for this age group according to the target AUC0-24 h,ss of 700 ng[…]h/mL was 0.02 mg/kg (see IMC recommendation of 12 Dec. 2016 in Appendix 1); 10 patients aged 3-11 years were enrolled in Cohort B1. • At the same time point (i.e., once safety and tolerability were confirmed based on the review of at least 4 weeks of treatment at 3 mg once daily in 9 patients in Cohort A1), enrolment was opened to another cohort of 9 adult and adolescent patients (Cohort A2) receiving RO7034067 5 mg once daily (see IMC recommendation of 19 Jan. 2017 in Appendix 1). As per protocol, the higher dose level was determined such as to achieve maximum SMN protein increase, without exceeding the exposure cap (Cmax 400 ng/mL; mean AUC0 24 h,ss 2000 ng[…]h/mL); 10 patients aged 13[…]24 years were enrolled in Cohort A2. • Based on the review of a minimum of 4 weeks of treatment at 0.02 mg/kg in 9 patients enrolled in Cohort B1, the following recommendations were made by the IMC: i) to increase the dose in these patients to 0.05 mg/kg without exceeding a cap dose of 3 mg, and ii) to enroll a minimum of 9 additional patients aged 2[…]11 years at a dose of 0.05 mg/kg without exceeding a cap dose of 3 mg (Cohort B2), targeting at least 5 patients aged 2[…]6 years (see IMC recommendation of 13 Mar. […] At the same time point, enrollment was opened to another cohort of 9 patients at the dose of 0.25 mg/kg without exceeding a cap dose of 5 mg (Cohort B3), determined such as to achieve maximum Survival of Motor Neuron (SMN) protein increase, without exceeding the exposure cap (Cmax 400 ng/mL; mean AUC0-24 h,ss 2000 ng[…]h/mL); 10 patients aged 2[…]11 years were enrolled in Cohort B3. • Upon completion of at least 12 weeks of placebo-controlled treatment by a minimum of 9 patients of each cohort, the IMC reviewed all available data from the cohort to make the decision to switch placebo patients to active treatment at the dose tested in their respective cohort. Dates of the IMC decisions to switch placebo patients to active treatment in the respective cohorts are provided in Section 1.3. • For the last cohort in Part 1 (Cohort B3), all available safety, tolerability, PK and PD data following completion of a minimum of 4 weeks treatment by the 9th patient (including all available data for the 10th patient of the last cohort who was enrolled approximately 1 week after the 9th patient, and all available data from all previous cohorts) were reviewed by the IMC in order to select the dose to be administered in Part 2 of the study. This dose selection was confirmed by the external iDMC following review of the same data package. […]

[2] = 39-week monkey toxicity study: toxicokinetics in plasma; type: in vivo, cynomolgus monkeys (Macaca fascicularis); details: for AUC(0-t) / Cmax: cynomolgus monkey, plasma
Method: Blood samples for toxicokinetics (nominally 0.5 mL) were taken from all test article-treated animals on Days 1, 12 (Week 2), 26 (Group 4 only), 57 (Week 9), 92 (Week 14), 180 (Week 26) and 267 (Week 39) of the dosing phase at the following time points: • 0 (predose), 1, 3, 7 and 24 hours postdose
An additional sample was taken at 72 hours postdose on Day 12 (i.e. Day 15) from all Group 4 animals.
Samples were taken from the femoral vein/artery. Each blood sample was mixed gently by hand then placed on crushed wet ice until centrifugation at 2300 g for 10 minutes at approximately 4° C. The resultant plasma was separated, split into two uniquely labelled clear polypropylene tubes and frozen at <−50° C. (nominally −80° C.). One sample was transported frozen on dry ice to the Principal Investigator for analysis, and the other was retained at Covance.

[3] = system: FoxM1; assay: Alternative splicing of FoxM1 in SMA Type 1 patient fibroblasts (RT-qPCR); type: cell-based; details: Homo sapiens, Fibroblast, 24 hours, read-out: EC50 for FoxM1 full-length (FL) mRNA
Method: FIG. 4: Alternative Splicing of FoxM1 In Vitro • SMA Type 1 patient fibroblasts were treated with RO7034067 for 24 hours, and FoxM1 full-length (FL) and exon 9-lacking (Δ9) mRNAs were analyzed by RT-qPCR. Data represent means±SEM of 6 repetitions and are expressed as fold change vs. untreated controls.
FoxM1, a gene alternatively spliced by other splicing modifier compounds, encodes a cell cycle regulator. […] Increased abundance of the FoxM1A isoform, together with decreased abundance of FoxM1 isoforms lacking exon 9, has the capability to disturb and inhibit cell cycle progression if splicing changes are at a level that is biologically significant. Thus, RO7034067 acts in a similar way on the SMN2 and FoxM1 splicing machinery, but with opposing outcomes with regard to protein function. MADD, a gene involved in apoptosis processes, has also been identified as a secondary splice target.

[4] = system: human RPE cells; assay: Lysosomal function in human RPE cells in vitro; type: cell-based

Question: Which AUC(0-t) ([1]; 2-11 yr, 0.02 mg/kg) does the source give for Cc1cn2nc(-c3cc(=O)n4cc(N5CCNC6(CC6)C5)ccc4n3)cc(C)c2n1 [RO7034067, 7-(4,7-diazaspiro[2.5]octan-7-yl)-2-(2,8-dimethylimidazo[1,2-b]pyridazin-6-yl)pyrido[1,2-a]pyrimidin-4-one] here?
Answer: The AUC(0-t) was 133 ng·h/mL.

Question: What about the AUC(0-t) ([1]; 2-11 yr, 0.05 mg/kg) of the same compound?
Answer: The AUC(0-t) was 407 ng·h/mL.

Question: What about the AUC(0-t) ([1]; 2-11 yr, 0.15 mg/kg) of the same compound?
Answer: Its AUC(0-t) is 822 ng·h/mL.

Question: What about the AUC(0-t) ([1]; 2-11 yr, 0.25 mg/kg) of the same compound?
Answer: The AUC(0-t) was 1450 ng·h/mL.

Question: What about the AUC(0-t) ([1]; 12-25 yr, 3 mg) of the same compound?
Answer: The AUC(0-t) was 1040 ng·h/mL.

Question: And the AUC(0-t) ([1]; 12-25 yr, 5 mg)?
Answer: Its AUC(0-t) is 1610 ng·h/mL.

Question: What about the “predicted mean exposure (AUC0-24h,ss)” value ([1]; selected BP39055 Part 2 dose, all patients 2-25 years of age) of the same compound?
Answer: Its value is 1690 ng·h/mL.

Question: What about the “gender differences for AUC(0-24h) or Cmax” value ([2]; any dose level, 39-week dosing phase) of the same compound?
Answer: The value was “no relevant gender differences”.

Question: What about the “dose dependence of AUC(0-24h)” value ([2]; between 1.5 and 5 mg/kg/day on each evaluation day) of the same compound?
Answer: Its value is “roughly dose-proportional increase”.

Question: What about the AUC(0-t) ([2]; female, Day 12, 7.5 mg/kg/day oral, read-out: AUC(0-24h), female (mean)) of the same compound?
Answer: Its AUC(0-t) is 10200 ng·h/mL.

Question: And the Cmax ([2]; female, Day 12, 7.5 mg/kg/day oral, read-out: Cmax, female (mean))?
Answer: The Cmax was 1070 ng/mL.

Question: And the Cmax ([2]; female, Day 267 (Week 39), 1.5 mg/kg/day oral, read-out: Cmax, female (mean))?
Answer: Its Cmax is 396 ng/mL.

Question: What about the AUC(0-t) ([2]; female, Day 267, 1.5 mg/kg/day oral, read-out: AUC(0-24h), female (mean)) of the same compound?
Answer: The AUC(0-t) was 2060 ng·h/mL.

Question: What about the AUC(0-t) ([2]; female, Day 267, 3 mg/kg/day oral, read-out: AUC(0-24h), female (mean)) of the same compound?
Answer: The AUC(0-t) was 4850 ng·h/mL.

Question: And the Cmax ([2]; female, Day 267, 3 mg/kg/day oral, read-out: Cmax, female (mean))?
Answer: The Cmax was 973 ng/mL.

Question: What about the AUC(0-t) ([2]; female, Day 267, 5 mg/kg/day oral (Group 4, 7.5/5), read-out: AUC(0-24h), female (mean)) of the same compound?
Answer: Its AUC(0-t) is 6470 ng·h/mL.

Question: And the Cmax ([2]; female, Day 267, 5 mg/kg/day oral (Group 4, 7.5/5), read-out: Cmax, female (mean))?
Answer: Its Cmax is 1160 ng/mL.

Question: What about the AUC(0-t) ([2]; male, Day 12, 7.5 mg/kg/day oral, read-out: AUC(0-24h), male (mean)) of the same compound?
Answer: Its AUC(0-t) is 11200 ng·h/mL.

Question: What about the Cmax ([2]; male, Day 12, 7.5 mg/kg/day oral, read-out: Cmax, male (mean)) of the same compound?
Answer: Its Cmax is 1020 ng/mL.

Question: And the Cmax ([2]; male, Day 267 (Week 39), 1.5 mg/kg/day oral, read-out: Cmax, male (mean))?
Answer: The Cmax was 414 ng/mL.

Question: And the AUC(0-t) ([2]; male, Day 267, 1.5 mg/kg/day oral, read-out: AUC(0-24h), male (mean))?
Answer: The AUC(0-t) was 1870 ng·h/mL.

Question: And the AUC(0-t) ([2]; male, Day 267, 3 mg/kg/day oral, read-out: AUC(0-24h), male (mean))?
Answer: Its AUC(0-t) is 4880 ng·h/mL.

Question: And the Cmax ([2]; male, Day 267, 3 mg/kg/day oral, read-out: Cmax, male (mean))?
Answer: Its Cmax is 1000 ng/mL.

Question: What about the AUC(0-t) ([2]; male, Day 267, 5 mg/kg/day oral (Group 4, 7.5/5), read-out: AUC(0-24h), male (mean)) of the same compound?
Answer: The AUC(0-t) was 5880 ng·h/mL.

Question: What about the Cmax ([2]; male, Day 267, 5 mg/kg/day oral (Group 4, 7.5/5), read-out: Cmax, male (mean)) of the same compound?
Answer: Its Cmax is 701 ng/mL.

Question: What about the EC50 [3] of the same compound?
Answer: The EC50 was 67 ± 32 nM.

Question: What about the “effect on human RPE cells” value [4] of the same compound?
Answer: The value was “Impairment of lysosomal function/autophagosomal accumulation”.
